Laboratory results as given in paper PMC9145622, “Synthesis, Biological Evaluation, and Docking Studies of Antagonistic Hydroxylated Arecaidine Esters Targeting mAChRs” (Molecules, 2022).

Columns and labels:
hM2 = molecular target: T1, hM2 (Homo sapiens, UniProt P08172); test: Competitive [3H]NMS radioligand binding, CHO-K1 membranes expressing hM2; details: [3H]NMS, CHO-hM2 cell membrane preparations; >1000 values from two independent (single-concentration) experiments; read-out: Affinity: Ki ± SD hM2
T1 sequence (P08172 1-466): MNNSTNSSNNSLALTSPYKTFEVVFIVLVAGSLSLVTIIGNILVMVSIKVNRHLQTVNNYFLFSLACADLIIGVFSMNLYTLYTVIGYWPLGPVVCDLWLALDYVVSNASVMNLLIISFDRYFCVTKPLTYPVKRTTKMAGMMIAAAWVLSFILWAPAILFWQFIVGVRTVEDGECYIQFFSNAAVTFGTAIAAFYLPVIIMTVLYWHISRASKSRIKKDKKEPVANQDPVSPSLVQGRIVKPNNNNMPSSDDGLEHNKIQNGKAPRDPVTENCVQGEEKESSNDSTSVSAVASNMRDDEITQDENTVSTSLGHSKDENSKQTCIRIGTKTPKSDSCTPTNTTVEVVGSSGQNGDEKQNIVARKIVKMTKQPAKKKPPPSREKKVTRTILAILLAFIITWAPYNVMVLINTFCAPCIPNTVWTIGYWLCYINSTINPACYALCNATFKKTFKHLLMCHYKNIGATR
Source text: (§1) The arecaidine esters’ affinities towards the human mAChR subtypes hM1–hM5 were studied in a competitive radioligand binding assay using CHO-K1 cell membrane homogenates expressing a single mAChR subtype and tritiated N-methyl scopolamine methyl chloride ([^3H]NMS). To speed up our affinity testing regime, we subjected all test substances to preliminary single-concentration displacement assays, as described previously. Compounds with percent displacements below 75% at any of the subtypes were dropped from further investigations (Table S1). For compounds meeting the percent displacement threshold (8c, 10b, 10c, 17b, 18b, and 25), inhibition constants (Ki) were assessed in dose-dependent displacement experiments (Table 2).
(§2) Cell membranes bearing hM1-hM5 receptors were prepared as described previously. Briefly, stably transfected CHO-K1 cells were grown to at least 80% confluency in T175 flasks, washed with ice-cold DPBS, and scraped into a mixture of ice-cold 2 mL 10 mM Tris-HCl, 1 mM EDTA-buffer, pH 7.4 and 200 µL protease inhibitor. A cell homogenate was prepared by passing the cell suspension through a G29 needle. The cell homogenates corresponding to two T175 flasks were combined and subsequently centrifuged (10 min, 1000× g, 4 °C). Ultracentrifugation of the supernatant (1 h, 100,000× g, 4 °C) yielded a membrane pellet, which was suspended in 250 µL 50 mM Tris-HCl buffer, pH 7.4 and stored at −80 °C.
(§3) Then, 5 µL of test compound in DMSO, 50 µL of [^3H]NMS in assay buffer, and 445 µL of membrane suspension in assay buffer were incubated for 90 min at 23 °C in PP tubes. Maximum binding was measured by using 5 µL DMSO, and nonspecific binding was measured by using 5 µL of 1 µM scopolamine in DMSO. The effective concentration of [^3H]NMS was 0.2 nM, 0.3 nM, 0.8 nM, 0.2 nM, and 1 nM for M1–M5 and 4–30 µg membrane were used per tube. The membrane-bound radioactivity was recovered by filtration through Whatman™ GF/B glass fiber filters presoaked in aqueous 0.1% PEI using an M-36 tygon tubed cell harvester (Brandel®, Gaithersburg, MD, USA). Membranes were washed three times with ice-cold washing buffer (50 mM Tris, pH 7.4) before being dried, transferred to 2 mL scintillation cocktail (UltimaGold™, high flashpoint LSC cocktail, PerkinElmer, Waltham, MA, USA) and counted in a β-counter (Hidex TDCR liquid scintillation counter in CPM mode). IC50 values were calculated by a variable slope logistic regression using at least five distinct concentrations of test compounds, pipetted in triplicates.

hM4 = molecular target: T2, hM4 (Homo sapiens, UniProt P08173); test: Competitive [3H]NMS radioligand binding, CHO-K1 membranes expressing hM4; details: [3H]NMS, CHO-hM4 cell membrane preparations; read-out: Affinity: Ki ± SD hM4
T2 sequence (P08173 1-479): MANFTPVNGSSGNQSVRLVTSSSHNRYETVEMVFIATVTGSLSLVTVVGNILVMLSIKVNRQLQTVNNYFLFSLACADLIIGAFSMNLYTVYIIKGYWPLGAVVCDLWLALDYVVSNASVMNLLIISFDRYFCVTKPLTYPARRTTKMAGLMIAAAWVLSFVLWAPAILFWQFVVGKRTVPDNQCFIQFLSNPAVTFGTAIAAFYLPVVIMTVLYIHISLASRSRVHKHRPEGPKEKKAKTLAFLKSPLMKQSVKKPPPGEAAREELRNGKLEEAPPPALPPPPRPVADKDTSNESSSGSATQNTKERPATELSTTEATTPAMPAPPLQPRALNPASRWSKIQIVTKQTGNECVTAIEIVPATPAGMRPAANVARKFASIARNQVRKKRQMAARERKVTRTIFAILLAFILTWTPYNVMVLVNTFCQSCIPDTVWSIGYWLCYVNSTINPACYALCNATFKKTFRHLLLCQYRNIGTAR
Source text: as §1, §2, §3

hM3 = hM3 (Homo sapiens, UniProt P20309); test: Competitive [3H]NMS radioligand binding, CHO-K1 membranes expressing hM3; details: [3H]NMS, CHO-hM3 cell membrane preparations; read-out: Affinity: Ki ± SD hM3
Source text: as §1, §2, §3

hM5 = molecular target: T3, hM5 (Homo sapiens, UniProt P08912); test: Competitive [3H]NMS radioligand binding, CHO-K1 membranes expressing hM5; details: for Ki: [3H]NMS, CHO-hM5 cell membrane preparations, read-out: Affinity: Ki ± SD hM5
T3 sequence (P08912 1-532): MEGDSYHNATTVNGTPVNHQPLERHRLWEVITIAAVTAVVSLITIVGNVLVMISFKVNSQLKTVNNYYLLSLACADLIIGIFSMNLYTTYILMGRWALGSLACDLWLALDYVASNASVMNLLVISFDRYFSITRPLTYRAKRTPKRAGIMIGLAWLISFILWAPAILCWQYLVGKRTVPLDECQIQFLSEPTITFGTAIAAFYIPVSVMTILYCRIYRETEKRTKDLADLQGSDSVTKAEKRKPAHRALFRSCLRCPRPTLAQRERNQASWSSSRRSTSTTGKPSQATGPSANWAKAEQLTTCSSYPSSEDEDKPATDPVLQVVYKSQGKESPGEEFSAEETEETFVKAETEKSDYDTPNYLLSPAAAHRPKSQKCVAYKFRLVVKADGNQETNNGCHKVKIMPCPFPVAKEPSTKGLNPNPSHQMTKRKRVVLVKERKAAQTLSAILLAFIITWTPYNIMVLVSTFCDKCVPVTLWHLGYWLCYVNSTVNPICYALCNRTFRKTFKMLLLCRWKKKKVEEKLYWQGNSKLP
Source text: as §1, §2, §3

hM3, sequence (P20309 whole entry): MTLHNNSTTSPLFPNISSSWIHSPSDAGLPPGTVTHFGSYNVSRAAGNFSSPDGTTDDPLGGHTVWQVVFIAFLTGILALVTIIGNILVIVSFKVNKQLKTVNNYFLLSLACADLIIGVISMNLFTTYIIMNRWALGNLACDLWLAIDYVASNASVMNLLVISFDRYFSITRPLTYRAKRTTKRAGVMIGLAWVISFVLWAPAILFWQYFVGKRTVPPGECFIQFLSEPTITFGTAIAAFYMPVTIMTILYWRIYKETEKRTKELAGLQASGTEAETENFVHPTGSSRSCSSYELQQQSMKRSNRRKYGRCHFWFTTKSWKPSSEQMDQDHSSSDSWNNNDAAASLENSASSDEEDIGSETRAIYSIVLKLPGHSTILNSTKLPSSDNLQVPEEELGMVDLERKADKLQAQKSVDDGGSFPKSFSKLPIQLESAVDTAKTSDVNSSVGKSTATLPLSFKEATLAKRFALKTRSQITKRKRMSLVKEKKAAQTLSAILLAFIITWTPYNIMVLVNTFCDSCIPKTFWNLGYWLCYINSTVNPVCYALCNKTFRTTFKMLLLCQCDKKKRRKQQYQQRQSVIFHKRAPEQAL

Row | Compound | Ki (hM2) [nM] | Ki (hM4) [nM] | Ki (hM3) [nM] | Ki (hM5) [nM] | preference for hM5R over hM1R (hM5; in vitro binding affinities)
1 | CN1CCC=C(C(=O)OCc2ccc(CO)cc2)C1 [Compound 8c, 4-(hydroxymethyl)benzyl 1-methyl-1,2,5,6-tetrahydropyridine-3-carboxylate] | > 1000 | 697 ± 132 | 663 ± 56 | 417 ± 73 | 
2 | CN1CCC=C(C(=O)OC(c2ccccc2)c2cccc(O)c2)C1 (stereo not drawn) [Compound 17b, (3-hydroxyphenyl)(phenyl)methyl 1-methyl-1,2,5,6-tetrahydropyridine-3-carboxylate] | 172 ± 20 | 18.4 ± 5.8 | 20.4 ± 1.2 | 11 ± 1.5 | 
3 | CN1CCC=C(C(=O)OCC(O)(c2ccccc2)c2ccccc2)C1 [Compound 25, 2-hydroxy-2,2-diphenylethyl 1-methyl-1,2,5,6-tetrahydropyridine-3-carboxylate] | > 1000 | 217 ± 23 | 283 ± 20 | 284 ± 62 | 
4 | CN1CCC=C(C(=O)OCc2cccc(O)c2)C1 [Compound 18b, 3-hydroxybenzyl 1-methyl-1,2,5,6-tetrahydropyridine-3-carboxylate] | > 1000 | 634 ± 90 | 188 ± 18 | 90 ± 27 | almost threefold
5 | CN1CCC=C(C(=O)OC(c2ccccc2)c2ccc(CO)cc2)C1 (stereo not drawn) [Compound 10c, (4-(hydroxymethyl)phenyl)(phenyl)methyl 1-methyl-1,2,5,6-tetrahydropyridine-3-carboxylate] | 980 ± 32 | 93 ± 23 | 150 ± 26 | 72 ± 13 | 
